Results published in US20050026189A1, “Microbial operons” (priority 2003, published 2005).

Tests used:
[1] = system: E. coli transcribing IPTG-inducible antisense clones; assay: Cell-based assay: antibiotic sensitivity of E. coli transcribing antisense to ribosomal protein genes or to genes not involved in protein synthesis (FIGS. 8, 9); design: species or system Escherichia coli
Text: The effectiveness of the above cell-based assay was validated using constructs transcribing antisense RNA to the proliferation required Escherichia coli genes rplL, rplJ, and rplW encoding ribosomal proteins L7/L12, L10 and L23 respectively. These proteins are essential components of the protein synthesis apparatus of the cell and as such are required for proliferation. These constructs were used to test the effect of antisense transcription on cell sensitivity to antibiotics known to bind to the ribosome and thereby inhibit protein synthesis. Constructs transcribing antisense RNA to several other genes (elaD, visC, yohH, and atpE/B), the products of which are not involved in protein synthesis were used for comparison. […]
The cell populations containing vectors producing AS-elaD or AS-rplW were exposed to a range of IPTG concentrations in liquid medium to obtain the growth inhibitory dose curve for each clone (FIG. 7). First, seed cultures were grown to a particular turbidity measured by the optical density (OD) of the growth solution. […] The cells were grown for up to 15 hours and the extent of growth was determined by measuring the optical density of the cultures at 600 nm. […]

[2] = system: E. coli transcribing antisense RNA to rplL and rplJ (AS-rplL/J); assay: microbe, parasite or virus in culture; type: cell-based; details: for Fold Increase in Sensitivity: IC50 without IPTG versus IC50 with 400 μM IPTG; for Sensitivity Increased?: statistically significant decrease in the IC50 value in the presence of inducer (IPTG)
Experimental: The effectiveness of the above assays was validated using proliferation-required genes from E. coli which were identified using procedures similar to those described above. Antibiotics of various chemical classes and modes of action were purchased from Sigma Chemicals (St. Louis, Mo.). Stock solutions were prepared by dissolving each antibiotic in an appropriate aqueous solution based on information provided by the manufacturer. The final working solution of each antibiotic contained no more than 0.2% (w/v) of any organic solvent. To determine their potency against a bacterial strain engineered for transcription of an antisense comprising a nucleotide sequence complementary to a proliferation-required 50S ribosomal protein, each antibiotic was serially diluted two- or three-fold in growth medium supplemented with the appropriate antibiotic for maintenance of the antisense construct. At least ten dilutions were prepared for each antibiotic. 25 μL aliquots of each dilution were transferred to discrete wells of a 384-well microplate (the assay plate) using a multi-channel pipette. Quadruplicate wells were used for each dilution of an antibiotic under each treatment condition (plus and minus inducer). Each assay plate contained twenty wells for cell growth controls (growth medium replacing antibiotic), ten wells for each treatment (plus and minus inducer, in this example IPTG). Assay plates were usually divided into the two treatments: half the plate containing induced cells and an appropriate concentrations of inducer (in this example IPTG) to maintain the state of induction, the other half containing non-induced cells in the absence of IPTG.
Cells for the assay were prepared as follows. Bacterial cells containing a construct, from which transcription of antisense nucleic acid comprising a nucleotide sequence complementary to rplL and rplJ (AS-rplL/J), which encode proliferation-required 50S ribosomal subunit proteins, is inducible in the presence of IPTG, were grown into exponential growth (OD600 0.2 to 0.3) and then diluted 1:100 into fresh medium containing either 400 μM or 0 μM inducer (IPTG). These cultures were incubated at 37° C. for 2.5 hr. After a 2.5 hr incubation, induced and non-induced cells were respectively diluted into an assay medium at a final OD600 value of 0.0004. The medium contained an appropriate concentration of the antibiotic for the maintenance of the antisense construct. In addition, the medium used to dilute induced cells was supplemented with 800 μM IPTG so that addition to the assay plate would result in a final IPTG concentration of 400 μM. Induced and non-induced cell suspensions were dispensed (25 μl/well) into the appropriate wells of the assay plate as discussed previously. The plate was then loaded into a plate reader, incubated at constant temperature, and cell growth was monitored in each well by the measurement of light scattering at 595 nm. Growth was monitored every 5 minutes until the cell culture attained a stationary growth phase. For each concentration of antibiotic, a percentage inhibition of growth was calculated at the time point corresponding to mid-exponential growth for the associated control wells (no antibiotic, plus or minus IPTG). For each antibiotic and condition (plus or minus IPTG), a plot of percent inhibition versus log of antibiotic concentration was generated and the IC50 determined.

SMILES	sensitivity to antibiotics which do not inhibit protein synthesis ([1]; clone transcribing antisense to rplL and rplJ (AS-rplL/J))	Fold Increase in Sensitivity [2]	Sensitivity Increased? [2]	sensitivity to erythromycin ([1]; initial experiments, clones transcribing antisense to protein synthesis genes (L7/L12 & L10, L7/L12 alone, L22, L18, rRNA, Elongation Factor G))
CCn1cc(C(=O)O)c(=O)c2ccc(C)nc21 [Nalidixic acid]	does not show increased sensitivity	1 Fold	No	
CC[C@H]1OC(=O)[C@H](C)[C@@H](O[C@H]2C[C@@](C)(OC)[C@@H](O)[C@H](C)O2)[C@H](C)[C@@H](O[C@@H]2O[C@H](C)C[C@H](N(C)C)[C@H]2O)[C@](C)(O)C[C@@H](C)C(=O)[C@H](C)[C@@H](O)[C@]1(C)O [Erythromycin]		40 Fold	Yes	increased sensitivity
